Data published in publication PMC7754785 (ACS Omega, 2020).
“And” between values parts separate entries of the source, which are not always exact repeats. Equal values may be shown once.

Columns and labels:
[1] = molecular target: Mpro from SARS CoV-2 (Severe acute respiratory syndrome coronavirus 2, UniProt P0DTD1); assay: Surface plasmon resonance binding to immobilized Mpro; settings: dissociation constant KD, SPR, Mpro immobilized on CM-5 chip; KD = koff/kon
[2] = molecular target: T1, Mpro (Severe acute respiratory syndrome coronavirus 2, UniProt P0DTD1); settings: previous computational studies in our lab; cited from earlier work
[3] = molecular target: T1, Mpro; settings: previous computational studies in our lab; cited from earlier work; remark: listed apart in the source
[4] = molecular target: T1, Mpro; assay: Universal protease activity assay with casein as substrate; format: biochemical, SARS-CoV-2; settings: IC50, 10 μM Mpro, 150 μM casein, phosphate buffer pH 7.5, 37 °C

| Compound | Kd [1] | MM-PBSA binding free energy [2] [kcal/mol] | docking score [3] [kcal/mol] | IC50 [4] [µM] |
| --- | --- | --- | --- | --- |
| CC(C)c1nc(CN(C)C(=O)N[C@@H](CCN2CCOCC2)C(=O)N[C@H](CC[C@H](Cc2ccccc2)NC(=O)OCc2cncs2)Cc2ccccc2)cs1 [cobicistat] | ~2.1 µM and 2.1 µM | -11.41 | -12.31 | ~6.7 |
| Nc1ccn([C@H]2C[C@H](O)[C@@H](COP(=O)(O)OP(=O)(O)OP(=O)(O)OP(=O)(O)OC[C@H]3O[C@@H](n4ccc(=O)[nH]c4=O)[C@H](O)[C@@H]3O)O2)c(=O)n1 [DB04983, Denufosol] | 1400 µM and 1440 µM |  |  | 1300 |
| CSCCNc1nc(SCCC(F)(F)F)nc2c1ncn2[C@@H]1O[C@H](COP(=O)(O)OP(=O)(O)C(Cl)(Cl)P(=O)(O)O)[C@@H](O)[C@H]1O [cangrelor] | 700 µM and 640 µM |  | -12.28 | 900 |
